Results as given in patent US6515173B1, “Inhibitors of the ICE/ced-3 family of cysteine proteases” (Idun Pharmaceuticals, Inc., priority 2000, dated 2003).
Peptide text beside a SMILES is read from it. * marks the point of attachment. Cbz = O=C(OCc1ccccc1)*; CH2F = FC*

Columns and labels:
Type in all cases: biochemical
Settings in all cases: continuous assay sixty minutes, reaction initiated by adding enzyme to substrate-inhibitor mixture; Ki by simulating AMC formation (Equation 1)
mICE = target: T1, mICE (Mus musculus, UniProt P29452); test: Ki determination, ICE/ced-3 family protease fluorescence assay (mICE)
T1 sequence (P29452 123-296 limits assumed): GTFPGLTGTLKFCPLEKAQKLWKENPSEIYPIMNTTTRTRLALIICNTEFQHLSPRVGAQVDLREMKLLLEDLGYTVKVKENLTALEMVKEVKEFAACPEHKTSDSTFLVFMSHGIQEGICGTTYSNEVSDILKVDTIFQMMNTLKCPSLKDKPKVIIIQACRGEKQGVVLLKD
T1 sequence (P29452 315-402 limits assumed): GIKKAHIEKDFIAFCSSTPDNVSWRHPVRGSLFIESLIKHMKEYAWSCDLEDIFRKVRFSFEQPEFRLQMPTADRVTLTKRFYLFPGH
Procedure: (§1) Fluorescence enzyme assays detecting the activity of the compounds of Formula I utilizing the recombinant ICE and CPP32 enzymes are performed essentially according to Thorrberry et al. (Nature, 356:768:774 (1992)) and Nicholson et al. (Nature, 376:37-43 (1995)) respectively, (herein incorporated by reference) in 96 well microtiter plates. The substrate is Acetyl-Tyr-Val-Ala-Asp-amino-4-methylcoumarin (AMC) (SEQ ID NO: 1) for the ICE assay and Acetyl-Asp-Glu-Val-Asp-amino-4-methylcoumarin (SEQ ID NO: 2) for the CPP32, Mch2, Mch3 and Mch5 assays. Enzyme reactions are run in ICE buffer (25 mM HEPES, 1 mM EDTA, 0.1% CHAPS, 10% sucrose, pH 7.5) containing 2 mM DTT at room temperature in duplicate. The assays are performed by mixing the following components:
(§2) 50 μL ICE, Mch2, Mch5, CPP32 (18.8, 38, 8.1 and 0.153 nM concentrations, respectively) or Mch3 (1 unit) enzyme in ICE buffer containing either 8.0 (ICE, Mch2, Mch3, CPP32) or 20 (Mch5) mM DTT;
(§3) 50 μL compound of Formula I or ICE buffer (control); and […]
(§4) […] Fluorescent AMC product formation is monitored for one hour at room temperature by measuring the fluorescence emission at 460 nm using an excitation wavelength of 360 nm. […]
(§5) The product formation at time t may be expressed as: [formula] […]
(§6) The activity of a representative compound of this invention (i.e., Compound No. 1) evaluated according to the procedures disclosed in Example 1. […]

CPP32 = target: T2, CPP32 (Homo sapiens, UniProt P42574); test: Ki determination, ICE/ced-3 family protease fluorescence assay (CPP32)
T2 sequence (P42574 29-175 limits assumed): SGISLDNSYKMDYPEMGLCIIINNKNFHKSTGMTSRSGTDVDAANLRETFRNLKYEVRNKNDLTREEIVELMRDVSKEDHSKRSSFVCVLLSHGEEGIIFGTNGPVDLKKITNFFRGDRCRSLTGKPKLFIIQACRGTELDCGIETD
T2 sequence (P42574 176-277 limits assumed): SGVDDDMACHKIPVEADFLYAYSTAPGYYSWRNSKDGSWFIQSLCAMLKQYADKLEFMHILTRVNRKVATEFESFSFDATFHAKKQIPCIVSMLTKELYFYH
Procedure: as §1, §2, §3, §4, §5, §6

MCH-2 = target: T3, MCH-2 (Homo sapiens, UniProt P55212); test: Ki determination, ICE/ced-3 family protease fluorescence assay (MCH-2)
T3 sequence (P55212 24-179 limits assumed): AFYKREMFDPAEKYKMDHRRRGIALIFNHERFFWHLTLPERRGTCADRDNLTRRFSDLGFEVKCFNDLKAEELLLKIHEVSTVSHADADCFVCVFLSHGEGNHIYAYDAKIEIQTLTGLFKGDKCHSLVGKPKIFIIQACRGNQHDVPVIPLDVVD
T3 sequence (P55212 194-293 limits assumed): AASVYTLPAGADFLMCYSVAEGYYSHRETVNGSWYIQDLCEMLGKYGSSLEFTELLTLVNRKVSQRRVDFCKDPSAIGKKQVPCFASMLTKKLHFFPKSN
Procedure: as §1, §2, §3, §4, §5, §6

MCH-5 = MCH-5 (Homo sapiens, UniProt Q14790); test: Ki determination, ICE/ced-3 family protease fluorescence assay (MCH-5)
Procedure: as §1, §2, §3, §4, §5, §6

Which results are given for `C[C@H](NC(=O)C(=O)Nc1ccccc1C(C)(C)C)C(=O)N[C@@H](CC(=O)NS(C)(=O)=O)C(=O)COc1c(F)c(F)cc(F)c1F` [compound 1]?
Ki (mICE): 4 nM; Ki (CPP32): 856 nM; Ki (MCH-2): 0.681 µM; Ki (MCH-5): 11 nM

Which Ki (mICE) does the source give for `CC(NC(=O)C(NC(=O)OCc1ccccc1)C(C)C)C(=O)NC(CC(=O)O)C(=O)CF` (stereo not drawn) [reference, Cbz-ValAlaAsp-CH2F] (Cbz-Val-Ala-Asp-CH2F; configuration not given here) here?
Its Ki is 15 nM.

What about the Ki (CPP32) of the same molecule?
The Ki was 820 nM.

What about the Ki (MCH-2) of the same molecule?
Its Ki is 0.594 µM.

And the Ki (MCH-5)?
The Ki was 18 nM.
